# According to paper PMC8498988, “Scaffold Hybridization Strategy Leads to the Discovery of Dopamine D3 Receptor-Selective or Multitarget Bitopic Ligands Potentially Useful for Central Nervous System Disorders” (ACS Chemical Neuroscience, 2021):
# Like-named read-outs stand apart in the source and are kept apart here. Marks after values point to notes of the source that are not given here.
# Key:
# [1] = target: 5-HT2AR (Homo sapiens, UniProt P28223); parameters: expressed in transfected cells; host or cells: HEK (HEK-h5HT2A); settings: human cloned receptor; read-out: Ki ± SEM, 5-HT2AR; cited from earlier work
# Sequence of 5-HT2AR (P28223 whole entry): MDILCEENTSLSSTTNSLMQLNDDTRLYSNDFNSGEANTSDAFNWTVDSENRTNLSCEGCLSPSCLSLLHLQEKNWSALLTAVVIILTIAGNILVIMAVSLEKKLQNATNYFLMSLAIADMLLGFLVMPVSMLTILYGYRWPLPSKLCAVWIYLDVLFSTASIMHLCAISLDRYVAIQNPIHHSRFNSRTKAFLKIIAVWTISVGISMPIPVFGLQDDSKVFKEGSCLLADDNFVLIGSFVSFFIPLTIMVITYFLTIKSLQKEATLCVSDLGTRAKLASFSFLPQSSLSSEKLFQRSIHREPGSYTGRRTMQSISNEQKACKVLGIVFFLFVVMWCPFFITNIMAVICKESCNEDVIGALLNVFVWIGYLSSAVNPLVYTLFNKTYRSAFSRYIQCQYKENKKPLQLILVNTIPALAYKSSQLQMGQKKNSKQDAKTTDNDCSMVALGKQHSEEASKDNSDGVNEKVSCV
# [2] = target: T1, D3R (Homo sapiens, UniProt P35462); assay: Radioligand competition binding at human D3R ([3H]N-methylspiperone, HEK293 membranes); parameters: expressed in transfected cells; host or cells: HEK293
# T1 sequence (P35462 whole entry): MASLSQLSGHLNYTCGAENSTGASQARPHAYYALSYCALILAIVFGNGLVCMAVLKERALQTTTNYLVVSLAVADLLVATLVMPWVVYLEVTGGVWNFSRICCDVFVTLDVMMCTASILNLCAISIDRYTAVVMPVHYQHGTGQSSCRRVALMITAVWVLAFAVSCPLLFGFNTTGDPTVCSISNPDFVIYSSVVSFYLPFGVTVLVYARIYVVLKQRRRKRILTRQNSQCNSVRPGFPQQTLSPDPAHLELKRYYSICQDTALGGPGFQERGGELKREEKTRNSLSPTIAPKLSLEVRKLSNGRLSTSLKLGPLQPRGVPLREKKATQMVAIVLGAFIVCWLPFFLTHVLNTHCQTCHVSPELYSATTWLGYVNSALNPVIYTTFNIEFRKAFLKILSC
# Method: The novel hybrid derivatives 3–11 were tested at hD2R, hD3R, or hD4R stably expressed in HEK293 cells by competition binding assays, using [^3H]N-methylspiperone as the radioligand, to evaluate their D2-like affinity and subtype selectivity, following the previously reported procedures.[41],[45],[46]
# Binding at dopamine D2-like receptors was determined using previously described methods.[41],[45],[46] Membranes were prepared from HEK293 cells stably expressing human D2, D3, or D4, grown in a 50:50 mix of Dulbecco’s minimal essential medium (DMEM) and Ham’s F12 culture media, supplemented with 20 mM HEPES, 2 mM L-glutamine, 0.1 mM nonessential amino acids, 1× antibiotic/antimycotic, 10% heat-inactivated fetal bovine serum, and 200 μg/mL hygromycin (Life Technologies, Grand Island, NY) and kept in an incubator at 37 °C and 5% CO2. Upon reaching 80–90% confluency, the cells were harvested using premixed Earle’s Balanced Salt Solution (EBSS) with 5 μM EDTA (Life Technologies) and centrifuged at 3000 rpm for 10 min at 21 °C. The supernatant was removed, and the pellet was resuspended in 10 mL hypotonic lysis buffer (5 mM MgCl2, 5 mM Tris, pH 7.4 at 4 °C) and centrifuged at 20,000 rpm for 30 min at 4 °C. The pellet was then resuspended in fresh EBSS buffer made from 8.7 g/L Earle’s Balanced Salts without phenol red (US Biological, Salem, MA), 2.2 g/L sodium bicarbonate, pH to 7.4. A Bradford protein assay (Bio-Rad, Hercules, CA) was used to determine the protein concentration, and membranes were diluted to 500 μg/mL and stored at −80 °C for later use. Radioligand competition binding experiments were conducted using thawed membranes. Test compounds were freshly dissolved in 30% DMSO and 70% H2O to a stock concentration of 100 μM. To assist the solubilization of free-base compounds, 10 μL of glacial acetic acid was added along with DMSO. Each test compound was then diluted into 13 half-log serial dilutions using 30% DMSO vehicle; the final test concentrations ranged from 10 μM to 10 pM. The previously frozen membranes were diluted in fresh EBSS to a 100 μg/mL (for D2 or D3) or 200 μg/mL (D4) stock for binding. Radioligand competition experiments were conducted in glass tubes containing 300 μL of fresh EBSS buffer, 50 μL of diluted test compound, 100 μL of membranes (10 μg of total protein for D2 or D3 and 20 μg of total protein for D4), and 50 μL of [^3H]N-methylspiperone (0.4 nM final concentration; PerkinElmer). Nonspecific binding was determined using 10 μM butaclamol (Sigma-Aldrich, St. Louis, MO), and total binding was determined with the 30% DMSO vehicle. All compound dilutions were tested in triplicate and the reaction was incubated for 1 h at room temperature. The reaction was terminated by filtration through Whatman GF/B filters, presoaked for 1 h in 0.5% polyethylenimine, using a Brandel R48 filtering manifold (Brandel Instruments, Gaithersburg, MD). The filters were washed three times with 3 mL of ice-cold EBSS buffer and transferred to scintillation vials. CytoScint liquid scintillation cocktail (3 mL, MP Biomedicals, Solon, OH) was added, and vials were counted using a PerkinElmer Tri-Carb 2910 TR liquid scintillation counter (Waltham, MA).
# [3] = target: T2, human 5-HT1AR (Homo sapiens, UniProt P08908); settings: human cloned receptor; read-out: Ki ± SEM, 5-HT1AR; cited from earlier work
# T2 construct: expressed in transfected cells; host or cells: HeLa
# T2 sequence (P08908 1-422): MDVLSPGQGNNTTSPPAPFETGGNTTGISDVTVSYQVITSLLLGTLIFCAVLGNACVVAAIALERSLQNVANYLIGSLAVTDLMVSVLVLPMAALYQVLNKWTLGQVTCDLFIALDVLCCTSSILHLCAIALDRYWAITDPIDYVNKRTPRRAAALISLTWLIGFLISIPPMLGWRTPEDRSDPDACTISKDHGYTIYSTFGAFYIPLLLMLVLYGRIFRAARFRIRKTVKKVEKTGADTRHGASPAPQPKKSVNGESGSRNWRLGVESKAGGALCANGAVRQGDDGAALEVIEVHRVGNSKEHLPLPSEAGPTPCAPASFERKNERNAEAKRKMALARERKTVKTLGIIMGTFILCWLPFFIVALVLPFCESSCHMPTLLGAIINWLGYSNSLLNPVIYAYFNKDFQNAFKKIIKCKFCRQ
# [4] = target: T3, human D1R (Homo sapiens, UniProt P21728); settings: human cloned receptor; read-out: Ki ± SEM, D1R; cited from earlier work
# T3 construct: expressed in transfected cells; host or cells: mouse fibroblast cells (LhD1)
# T3 sequence (P21728 whole entry): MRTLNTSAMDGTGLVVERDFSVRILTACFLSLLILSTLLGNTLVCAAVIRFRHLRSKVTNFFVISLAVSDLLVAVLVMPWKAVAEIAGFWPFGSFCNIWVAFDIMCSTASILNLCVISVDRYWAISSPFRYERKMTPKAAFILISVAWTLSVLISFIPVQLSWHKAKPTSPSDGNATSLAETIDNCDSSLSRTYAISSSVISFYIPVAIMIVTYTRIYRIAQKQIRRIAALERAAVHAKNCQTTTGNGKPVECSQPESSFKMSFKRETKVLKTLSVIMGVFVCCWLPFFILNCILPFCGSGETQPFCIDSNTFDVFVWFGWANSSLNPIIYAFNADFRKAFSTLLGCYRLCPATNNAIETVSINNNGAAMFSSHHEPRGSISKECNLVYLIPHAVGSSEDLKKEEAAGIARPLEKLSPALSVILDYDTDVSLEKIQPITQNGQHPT
# [5] = target: D2R (Homo sapiens, UniProt P14416); parameters: expressed in transfected cells; host or cells: HEK293; settings: human cloned receptor; read-out: Ki ± SEM, D2R; cited from earlier work
# Sequence of D2R (P14416 whole entry): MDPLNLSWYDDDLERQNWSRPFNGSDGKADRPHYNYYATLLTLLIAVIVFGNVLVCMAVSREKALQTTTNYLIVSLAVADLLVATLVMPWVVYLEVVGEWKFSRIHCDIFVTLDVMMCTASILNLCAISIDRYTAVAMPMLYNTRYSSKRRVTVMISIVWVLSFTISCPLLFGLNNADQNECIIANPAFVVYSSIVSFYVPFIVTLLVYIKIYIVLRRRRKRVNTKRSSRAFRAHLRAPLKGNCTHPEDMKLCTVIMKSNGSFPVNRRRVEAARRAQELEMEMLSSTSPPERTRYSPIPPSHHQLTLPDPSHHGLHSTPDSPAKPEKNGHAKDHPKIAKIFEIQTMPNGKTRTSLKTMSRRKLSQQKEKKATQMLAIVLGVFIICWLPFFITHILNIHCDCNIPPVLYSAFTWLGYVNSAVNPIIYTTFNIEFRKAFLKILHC
# [6] = target: T1, D3R; parameters: expressed in transfected cells; host or cells: HEK293; settings: cited from earlier work; for D2/D3: ratio of Ki values D2R/D3R; for D4/D3: ratio of Ki values D4R/D3R
# [7] = target: T4, 5-HT2CR (Homo sapiens, UniProt P28335); parameters: expressed in transfected cells; host or cells: HEK (HEK-h5HT2C); settings: human cloned receptor; read-out: Ki ± SEM, 5-HT2CR; cited from earlier work
# T4 sequence (P28335 33-458): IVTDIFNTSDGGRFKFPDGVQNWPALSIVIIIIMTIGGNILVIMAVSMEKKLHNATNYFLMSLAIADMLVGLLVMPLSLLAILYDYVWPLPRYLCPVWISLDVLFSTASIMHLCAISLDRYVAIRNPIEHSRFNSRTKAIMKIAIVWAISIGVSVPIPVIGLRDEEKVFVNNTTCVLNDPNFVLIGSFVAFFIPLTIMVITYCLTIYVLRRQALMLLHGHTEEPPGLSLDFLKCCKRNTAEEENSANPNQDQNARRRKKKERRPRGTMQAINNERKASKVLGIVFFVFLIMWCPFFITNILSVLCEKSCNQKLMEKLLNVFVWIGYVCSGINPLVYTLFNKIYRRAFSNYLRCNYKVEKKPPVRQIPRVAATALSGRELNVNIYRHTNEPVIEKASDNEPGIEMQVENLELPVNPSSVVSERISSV
compound,measurement,setting,value
Oc1cccc(OCCNCC2COCC(c3ccccc3)(c3ccccc3)O2)c1 (stereo not shown) [compound 2],Ki,[1],1410 ± 224 nM
same,D2/D3,[2]; ratio of Ki values D2R/D3R,2
same,D4/D3,[2]; ratio of Ki values D4R/D3R,8
same,Ki,[3],1.15 ± 0.03 nM
same,Ki,[4],123 ± 11 nM
same,Ki,[5],3.16 ± 1 nM
same,Ki,"[6]; human cloned receptor, read-out: Ki ± SEM, D3R",1.38 ± 0.07 nM
same,Ki,[7],9.77 ± 0.501 µM
Cc1cc2c(s1)Nc1ccccc1N=C2N1CCN(C)CC1 [olanzapine],D2/D3,[6],0.62 ^e
same,D4/D3,[6],0.51 ^e
COc1ccccc1OCCNCC1COCC(c2ccccc2)(c2ccccc2)O1 (stereo not shown) [compound 1],Ki,[4],22.9 ± 3.1 nM
CN1CCN(C2=Nc3cc(Cl)ccc3Nc3ccccc32)CC1 [clozapine],D2/D3,[6],0.62 ^e
same,D4/D3,[6],0.21 ^e
